According to PubChem BioAssay AID248 (DTP/NCI, 2004):
Where “and” joins values, the source holds several entries; their conditions need not be identical. Identical values can stand only once. Toxic doses and inconclusive results are not listed. Rule as the data show it: active = T/C of 150% or more; inactive = T/C below 125%.

System: L1210 leukemia ip in BDF1 mice, survival T/C
Assay: NCI In Vivo Anticancer Drug Screen. Data for tumor model L1210 Leukemia (intraperitoneal) in B6D2F1 (BDF1) mice
Conditions: endpoint: mean survival time, higher = longer survival
Summary of the method: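 Survival endpoint. Drug-treated group vs vehicle group, expressed as T divided by C. Tumor passaged by transplantation.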

[1] = dose: 100.0 mg/kg/injection, schedule: Q04DX003 (ip), vehicle: saline with Tween-80
[2] = dose: 200.0 mg/kg/injection, schedule: Q04DX003 (ip), vehicle: saline with Tween-80
[3] = dose: 400.0 mg/kg/injection, schedule: Q04DX003 (ip), vehicle: saline with Tween-80
[4] = dose: 100.0 mg/kg/injection, schedule: Q01DX009 (ip), vehicle: saline with Tween-80
[5] = dose: 100.0 mg/kg/injection, schedule: Q04DX002 (ip), vehicle: Klucel (hydroxypropylcellulose) (HPC)
[6] = dose: 200.0 mg/kg/injection, schedule: Q04DX002 (ip), vehicle: Klucel (hydroxypropylcellulose) (HPC)
[7] = dose: 400.0 mg/kg/injection, schedule: Q04DX002 (ip), vehicle: Klucel (hydroxypropylcellulose) (HPC)
[8] = dose: 100.0 mg/kg/injection, schedule: Q01DX001 (ip), vehicle: saline
[9] = dose: 200.0 mg/kg/injection, schedule: Q01DX001 (ip), vehicle: saline
[10] = dose: 400.0 mg/kg/injection, schedule: Q01DX001 (ip), vehicle: saline

Measured: T/C

CCc1ccccc1Nc1cc(=O)[nH]c(=O)[nH]1
inactive: dose: 37.5 mg/kg/injection, schedule: Q01DX001 (ip), vehicle: Klucel (hydroxypropylcellulose) (HPC) 91 % of control | dose: 75.0 mg/kg/injection, schedule: Q01DX001 (ip), vehicle: Klucel (hydroxypropylcellulose) (HPC) 87 % of control | dose: 150.0 mg/kg/injection, schedule: Q01DX001 (ip), vehicle: Klucel (hydroxypropylcellulose) (HPC) 93 % of control

C/C=C/C1OCC(CC)([N+](=O)[O-])CO1 (centres undefined)
inactive: [1] 101 % of control | [2] 96 % of control | [3] 98 % of control

c1ccc(COCCNCCOCc2ccccc2)cc1
inactive: dose: 12.5 mg/kg/injection, schedule: Q01DX009 (ip), vehicle: Klucel (hydroxypropylcellulose) (HPC) 100 % of control | dose: 12.5 mg/kg/injection, schedule: Q04DX003 (ip), vehicle: Klucel (hydroxypropylcellulose) (HPC) 107 % of control | dose: 25.0 mg/kg/injection, schedule: Q01DX009 (ip), vehicle: Klucel (hydroxypropylcellulose) (HPC) 96 % of control | dose: 25.0 mg/kg/injection, schedule: Q04DX003 (ip), vehicle: Klucel (hydroxypropylcellulose) (HPC) 94 % of control | dose: 50.0 mg/kg/injection, schedule: Q01DX009 (ip), vehicle: Klucel (hydroxypropylcellulose) (HPC) 95 % of control | dose: 50.0 mg/kg/injection, schedule: Q04DX003 (ip), vehicle: Klucel (hydroxypropylcellulose) (HPC) 95 % of control

CSCSCC(NS(=O)(=O)c1ccc(C)cc1)C(=O)O (centres undefined)
inactive: [4] 109 % of control | [1] 107 % of control | dose: 200.0 mg/kg/injection, schedule: Q01DX009 (ip), vehicle: saline with Tween-80 109 % of control | [2] 96 % of control | dose: 400.0 mg/kg/injection, schedule: Q01DX009 (ip), vehicle: saline with Tween-80 104 % of control | [3] 105 % of control

C1CCCC(=[N+]2CCCC2)CCC1
inactive: dose: 100.0 mg/kg/injection, schedule: Q01DX009 (ip), vehicle: saline 100 % of control

CCc1cccc(CC)c1NC(=O)CS
inactive: [1] 94 % of control | [2] 95 % of control

Cc1c(N)nc(C(CC(N)=O)NCC(N)C(N)=O)nc1C(=O)NC(C(=O)NC(C)C(O)C(C)C(=O)NC(C(=O)NCCc1nc(-c2nc(C(=O)NCCC[S+](C)C)cs2)cs1)C(C)O)C(OC1OC(CO)C(O)C(O)C1OC1OC(CO)C(O)C(OC(N)=O)C1O)c1cnc[nH]1 (centres undefined)
inactive: dose: 1.0 mg/kg/injection, schedule: Q01DX009 (ip), vehicle: Klucel (hydroxypropylcellulose) (HPC) 106 % of control | dose: 2.0 mg/kg/injection, schedule: Q01DX009 (ip), vehicle: Klucel (hydroxypropylcellulose) (HPC) 95 % of control | dose: 4.0 mg/kg/injection, schedule: Q01DX009 (ip), vehicle: Klucel (hydroxypropylcellulose) (HPC) 107 % of control | dose: 8.0 mg/kg/injection, schedule: Q01DX009 (ip), vehicle: Klucel (hydroxypropylcellulose) (HPC) 101 % of control

COC(=O)CCCCn1ccc(=O)[nH]c1=O
inactive: [5] 100 % of control | [6] 104 % of control | [7] 100 % of control

COC(=O)C[N+]1(C)C2CCC1CC(Cl)C2 (centres undefined)
inactive: [8] 101 % of control

CCCCCCCCCCCCCCCC(=O)Nc1ccc(C)cc1C
inactive: [5] 96 % of control | [6] 93 % of control | [7] 90 % of control

NC(=S)c1nnn(Cc2ccccc2)c1N
inactive: [8] 100 % of control | [9] 101 % of control | [10] 102 % of control

O=[N+]([O-])c1ccc(S(=O)(=O)CC(Cl)c2ccccc2)cc1 (centres undefined)
inactive: [8] 102 % of control | dose: 100.0 mg/kg/injection, schedule: Q01DX009 (ip), vehicle: acetone 86 % of control | [9] 107 % of control | dose: 200.0 mg/kg/injection, schedule: Q01DX009 (ip), vehicle: acetone 94 % of control | [10] 110 % of control | dose: 400.0 mg/kg/injection, schedule: Q01DX009 (ip), vehicle: acetone 96 % of control

Nc1ccccc1SSc1ccccc1N
inactive: [5] 86 % of control | [6] 86 % of control

CCCCCCCCCCCCCCCCCC(=O)Oc1c(C(C)CC)cc([N+](=O)[O-])cc1[N+](=O)[O-] (centres undefined)
inactive: [5] 89 % of control | [6] 86 % of control | [7] 105 % of control

C=C(C)COc1ccc(Nc2ccccc2)cc1
inactive: dose: 100.0 mg/kg/injection, schedule: Q01DX001 (ip), vehicle: Klucel (hydroxypropylcellulose) (HPC) 92 % of control | dose: 200.0 mg/kg/injection, schedule: Q01DX001 (ip), vehicle: Klucel (hydroxypropylcellulose) (HPC) 95 % of control | dose: 400.0 mg/kg/injection, schedule: Q01DX001 (ip), vehicle: Klucel (hydroxypropylcellulose) (HPC) 89 % of control

O=C1CC(c2ccccc2)NN1c1ccccc1 (centres undefined)
inactive: dose: 50.0 mg/kg/injection, schedule: Q01DX009 (ip), vehicle: saline with Tween-80 95 % of control and 97 % of control | [4] 100 % of control and 103 % of control | dose: 100.0 mg/kg/injection, schedule: Q04DX002 (ip), vehicle: alcohol 102 % of control | dose: 200.0 mg/kg/injection, schedule: Q04DX002 (ip), vehicle: alcohol 104 % of control | dose: 400.0 mg/kg/injection, schedule: Q04DX002 (ip), vehicle: alcohol 94 % of control

CCCC(=O)OCC(=O)c1ccc(-c2ccccc2)cc1
inactive: [8] 96 % of control | [9] 94 % of control | [10] 94 % of control

COc1cc(CCCc2cccc(O)c(=O)c2)cc(OC)c1OC
inactive: dose: 100.0 mg/kg/injection, schedule: Q04DX002 (ip), vehicle: saline with Tween-80 91 % of control and 103 % of control | dose: 200.0 mg/kg/injection, schedule: Q04DX002 (ip), vehicle: saline with Tween-80 105 % of control and 89 % of control | dose: 400.0 mg/kg/injection, schedule: Q04DX002 (ip), vehicle: saline with Tween-80 108 % of control and 116 % of control

CCOP(=O)(OCC)Oc1ccc(SC)cc1
inactive: dose: 5.0 mg/kg/injection, schedule: Q01DX001 (ip), vehicle: saline 96 % of control | dose: 10.0 mg/kg/injection, schedule: Q01DX001 (ip), vehicle: saline 98 % of control

CC1(C)C=CN2C(=O)C3=CCCN3C(=O)C2CC12Nc1ccccc1C2=O (centres undefined)
inactive: dose: 100.0 mg/kg/injection, schedule: Q04DX003 (ip), vehicle: other 111 % of control | dose: 200.0 mg/kg/injection, schedule: Q04DX003 (ip), vehicle: other 103 % of control | dose: 400.0 mg/kg/injection, schedule: Q04DX003 (ip), vehicle: other 93 % of control

Cc1ccc(S(=O)(=O)NN=C2CCS(=O)CC2)cc1 (centres undefined)
inactive: dose: 100.0 mg/kg/injection, schedule: Q01DX009 (ip), vehicle: Klucel (hydroxypropylcellulose) (HPC) 90 % of control | dose: 200.0 mg/kg/injection, schedule: Q01DX009 (ip), vehicle: Klucel (hydroxypropylcellulose) (HPC) 97 % of control | dose: 400.0 mg/kg/injection, schedule: Q01DX009 (ip), vehicle: Klucel (hydroxypropylcellulose) (HPC) 94 % of control

CCC(C1=NC(C)(C)CO1)c1ccccc1Br (centres undefined)
inactive: dose: 100.0 mg/kg/injection, schedule: Q04DX003 (ip), vehicle: saline 97 % of control | dose: 200.0 mg/kg/injection, schedule: Q04DX003 (ip), vehicle: saline 98 % of control | dose: 400.0 mg/kg/injection, schedule: Q04DX003 (ip), vehicle: saline 88 % of control

CC1=C(N)/C(=C(/C)C#N)OC1=O
inactive: dose: 100.0 mg/kg/injection, schedule: Q01DX001 (ip), vehicle: saline with Tween-80 92 % of control | dose: 200.0 mg/kg/injection, schedule: Q01DX001 (ip), vehicle: saline with Tween-80 100 % of control | dose: 400.0 mg/kg/injection, schedule: Q01DX001 (ip), vehicle: saline with Tween-80 92 % of control
